Entries after “also recorded” stand apart in the source; their conditions may differ.
Experiments:
Assay type in all cases: in vivo
genes for PR proteins = experiment: DNA chip expression analysis of barley leaves after soil treatment, gene group; settings: treated plants compared with non-treated plants
Experimental: (§1) Barley seeds (of the Baroness variety) were sown in pots containing soil about 2 cm deep (1250 g of sandy loam/per pot; the soil moisture content was adjusted to 70% of the maximum water-holding capacity) and cultivated in a climatized chamber under specified light, moisture and temperature conditions (15 h white light, 70% atmospheric humidity, 23-19° C. day/night).
(§2) 14 days after the emergence of the barley plants 10 mg of imidacloprid per plant, dissolved in 100 ml water, were applied by means of a pipette to the soil around the base of the shoot. The same volume of water without any active compound was applied to the control pots. After the soil treatment the plants were no longer watered. At various times after application (0.25; 1; 6; 8; 11; 13; 15; 16 and 17 days) the leaves were harvested, quick-frozen in liquid nitrogen and stored at −80° C. until further treatment.
The labelled RNA probes for the DNA chip hybridization were produced according to the protocols (Expression Analysis, Technical Manual) of the Affymetrix company (Affymetrix Inc., 3380 Central Expressway, Santa Clara, Calif., USA). Whole RNA was first of all isolated from in each case 500 mg of the harvested leaves. […] The fluorescence data obtained were analyzed with the Microarray Suite 5 software from Affymetrix and the Expressionist Pro software from the GeneData company. […]

[1] = test system: Contig2788_x_at THAUMATIN-LIKE PROTEIN TLP7; experiment: DNA chip expression analysis of barley leaves after soil treatment; settings: 10 mg per plant to soil
Experimental: as §1, §2
(§3) The labelled RNA probes for the DNA chip hybridization were produced according to the protocols (Expression Analysis, Technical Manual) of the Affymetrix company (Affymetrix Inc., 3380 Central Expressway, Santa Clara, Calif., USA). Whole RNA was first of all isolated from in each case 500 mg of the harvested leaves. 10 μg portions of whole RNA were used for the first and second strand cDNA synthesis. The cDNA was amplified with T7 polymerase and simultaneously labelled with biotin-UTP. 20 μg portions of this biotinylated cDNA were used for the hybridization of the barley genome array (Barleyl Gene Chip, Item no: 511012) from Affymetrix. This DNA microarray contains DNA sequences of 22840 genes composed of a total of 400000 EST (Expressed Sequence Tag) sequences. Then the DNA microarrays were washed in the Affymetrix Fluidics Station, stained with streptavidin/phycoerythrin (Molecular Probes, P/N S-866) and scanned with the Affymetrix Gene Chip Scanner 3000. The fluorescence data obtained were analyzed with the Microarray Suite 5 software from Affymetrix and the Expressionist Pro software from the GeneData company. After a quality check, all of the DNA chip analyses were stored in a database. Since the Affymetrix Gene Chip System is based on measuring the absolute expression values of the genes contained in the chip, the expression values of the biological replicates of treated and non-treated plants were averaged after normalization (median calculation). With the aid of the statistical ANOVA method, those genes were identified whose expression was increased in the plants treated with imidacloprid but remained relatively constant in the untreated controls. The assembly of gene groups from specific metabolic pathways, signal transduction chains or functions was carried out by a keyword search through the gene annotations supplied by Affymetrix and by linking the genes to their corresponding Gene Ontology Annotations (Gene Ontology Consortium).

[2] = test system: Contig4405_x_at PATHOGENESIS-RELATED PROTEIN PR-10A; experiment: as above; settings: 10 mg per plant to soil
Experimental: as §1, §2, §3

[3] = test system: Contig17082_at TRYPSIN INHIBITOR; experiment: as above; settings: 10 mg per plant to soil
Experimental: as §1, §2, §3

[4] = test system: Contig2550_x_at PATHOGENESIS-RELATED PROTEIN 4; experiment: as above; settings: 10 mg per plant to soil
Experimental: as §1, §2, §3

O=[N+]([O-])/N=C1\NCCN1Cc1ccc(Cl)nc1 [imidacloprid]
expression of genes for PR proteins (genes for PR proteins): increased expression; also recorded: powerful induction
Induction factor = Expression (treated)/Expression (untreated) ([1]; 0.25 d): 0.8
Median of the raw expression data, treated ([1]; 0.25 days): 71.22
Induction factor = Expression (treated)/Expression (untreated) ([1]; 1 d): 0.7
Median of the raw expression data, treated ([1]; 1 day): 70.44
Induction factor = Expression (treated)/Expression (untreated) ([1]; 6 d): 12.2
Median of the raw expression data, treated ([1]; 6 days): 5432.88
Induction factor = Expression (treated)/Expression (untreated) ([1]; 8 d): 8.0
Median of the raw expression data, treated ([1]; 8 days): 7952.61
Induction factor = Expression (treated)/Expression (untreated) ([1]; 11 d): 6.3
Median of the raw expression data, treated ([1]; 11 days): 12190.31
Induction factor = Expression (treated)/Expression (untreated) ([1]; 13 d): 2.3
Median of the raw expression data, treated ([1]; 13 days): 4800.62
Induction factor = Expression (treated)/Expression (untreated) ([1]; 15 d): 1.5
Median of the raw expression data, treated ([1]; 15 days): 4880.14
Induction factor = Expression (treated)/Expression (untreated) ([1]; 16 d): 2.5
Median of the raw expression data, treated ([1]; 16 days): 1836.52
Induction factor = Expression (treated)/Expression (untreated) ([1]; 17 d): 1.2
Median of the raw expression data, treated ([1]; 17 days): 1166.53
Induction factor = Expression (treated)/Expression (untreated) ([2]; 0.25 d): 1.1
Median of the raw expression data, treated ([2]; 0.25 days): 60.34
Induction factor = Expression (treated)/Expression (untreated) ([2]; 1 d): 0.9
Median of the raw expression data, treated ([2]; 1 day): 55.96
Induction factor = Expression (treated)/Expression (untreated) ([2]; 6 d): 2.1
Median of the raw expression data, treated ([2]; 6 days): 146.82
Induction factor = Expression (treated)/Expression (untreated) ([2]; 8 d): 2.8
Median of the raw expression data, treated ([2]; 8 days): 181.30
Induction factor = Expression (treated)/Expression (untreated) ([2]; 11 d): 2.2
Median of the raw expression data, treated ([2]; 11 days): 125.79
Induction factor = Expression (treated)/Expression (untreated) ([2]; 13 d): 1.3
Median of the raw expression data, treated ([2]; 13 days): 55.42
Induction factor = Expression (treated)/Expression (untreated) ([2]; 15 d): 1.1
Median of the raw expression data, treated ([2]; 15 days): 57.66
Induction factor = Expression (treated)/Expression (untreated) ([2]; 16 d): 1.4
Median of the raw expression data, treated ([2]; 16 days): 88.69
Induction factor = Expression (treated)/Expression (untreated) ([2]; 17 d): 1.5
Median of the raw expression data, treated ([2]; 17 days): 87.06
Induction factor = Expression (treated)/Expression (untreated) ([3]; 0.25 d): 0.9
Median of the raw expression data, treated ([3]; 0.25 days): 161.42
Induction factor = Expression (treated)/Expression (untreated) ([3]; 1 d): 1.1
Median of the raw expression data, treated ([3]; 1 day): 162.50
Induction factor = Expression (treated)/Expression (untreated) ([3]; 6 d): 3.8
Median of the raw expression data, treated ([3]; 6 days): 745.06
Induction factor = Expression (treated)/Expression (untreated) ([3]; 8 d): 3.7
Median of the raw expression data, treated ([3]; 8 days): 853.21
Induction factor = Expression (treated)/Expression (untreated) ([3]; 11 d): 3.6
Median of the raw expression data, treated ([3]; 11 days): 911.63
Induction factor = Expression (treated)/Expression (untreated) ([3]; 13 d): 2.2
Median of the raw expression data, treated ([3]; 13 days): 281.55
Induction factor = Expression (treated)/Expression (untreated) ([3]; 15 d): 1.5
Median of the raw expression data, treated ([3]; 15 days): 209.34
Induction factor = Expression (treated)/Expression (untreated) ([3]; 16 d): 1.6
Median of the raw expression data, treated ([3]; 16 days): 276.41
Induction factor = Expression (treated)/Expression (untreated) ([3]; 17 d): 1.1
Median of the raw expression data, treated ([3]; 17 days): 225.25
Induction factor = Expression (treated)/Expression (untreated) ([4]; 0.25 d): 0.8
Median of the raw expression data, treated ([4]; 0.25 days): 68.63
Induction factor = Expression (treated)/Expression (untreated) ([4]; 1 d): 0.7
Median of the raw expression data, treated ([4]; 1 day): 54.66
Induction factor = Expression (treated)/Expression (untreated) ([4]; 6 d): 5.8
Median of the raw expression data, treated ([4]; 6 days): 716.14
Induction factor = Expression (treated)/Expression (untreated) ([4]; 8 d): 7.4
Median of the raw expression data, treated ([4]; 8 days): 1121.61
Induction factor = Expression (treated)/Expression (untreated) ([4]; 11 d): 6.1
Median of the raw expression data, treated ([4]; 11 days): 771.21
Induction factor = Expression (treated)/Expression (untreated) ([4]; 13 d): 3.1
Median of the raw expression data, treated ([4]; 13 days): 150.42
Induction factor = Expression (treated)/Expression (untreated) ([4]; 15 d): 1.4
Median of the raw expression data, treated ([4]; 15 days): 162.60
Induction factor = Expression (treated)/Expression (untreated) ([4]; 16 d): 2.7
Median of the raw expression data, treated ([4]; 16 days): 389.62
Induction factor = Expression (treated)/Expression (untreated) ([4]; 17 d): 0.9
Median of the raw expression data, treated ([4]; 17 days): 174.42

Reference: patent US20090018019A1, “INCREASING PATHOGEN DEFENCE IN PLANTS” (priority 2005, published 2009)
